Values of other authors, collected in paper PMC2033546, “Effects of somatostatin analogue RC-160 and bombesin/gastrin-releasing peptide antagonists on the growth of human small-cell and non-small-cell lung carcinomas in nude mice” (British Journal of Cancer, 1994).

Tests used:
EGF receptors = details: various cancer lines and cancer specimens; ref Liebow et al., 1992; cited from earlier work
Text: (§1) Br. J. Cancer (1994). 70, 886 892 ? Macmillan Press Ltd..

SCLC xenografts = details: nude mice; ref Alexander et al., 1988; cited from earlier work
Text: as §1

SCLC = details: in vitro; ref Carney et al., 1987; cited from earlier work
Text: as §1

Bombesin
Effect on phosphorylation of EGF receptors (in words) (EGF receptors): enhance the phosphorylation of EGF receptors
Effect on growth of SCLC xenografts (in words) (SCLC xenografts): stimulates
Effect on clonal growth of SCLC and DNA synthesis (in words) (SCLC): stimulates the clonal growth of SCLC and DNA synthesis in vitro
